The nature of series [1]: DRUGMATRIX: GABAA, Flunitrazepam, Central radioligand binding (ligand: [3H] Flunitrazepam). It is filed as cell membranes, Rattus norvegicus, Wistar, Brain, Membrane. Particulars: Not Active = under 50% inhibition at 10 µM.
Series [2] addresses Histamine H2 receptor (Homo sapiens, UniProt P25021). It is filed as cell membranes, CHO-K1, Membrane. Particulars: cho-k1.
Series [3] deals with Protein kinase C alpha type (Homo sapiens, UniProt P17252). Format: cell-based. Particulars: sf9.
For series [4], the target named is T1, C-C chemokine receptor type 4 (Homo sapiens, UniProt P51679). Further: in other assays of this panel Not Active means under 50% inhibition at 10 µM.
T1 sequence (P51679 whole entry): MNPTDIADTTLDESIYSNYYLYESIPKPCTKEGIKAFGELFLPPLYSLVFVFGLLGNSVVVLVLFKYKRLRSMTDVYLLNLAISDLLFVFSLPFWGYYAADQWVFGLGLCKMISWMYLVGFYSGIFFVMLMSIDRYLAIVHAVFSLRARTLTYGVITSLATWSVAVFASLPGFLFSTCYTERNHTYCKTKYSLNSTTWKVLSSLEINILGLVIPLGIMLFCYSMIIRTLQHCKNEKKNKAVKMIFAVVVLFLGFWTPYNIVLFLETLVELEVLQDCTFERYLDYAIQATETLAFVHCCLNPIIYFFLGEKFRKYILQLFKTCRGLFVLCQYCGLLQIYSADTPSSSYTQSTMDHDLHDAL
Format: cell membranes, Membrane. Particulars: chem-1.

Series [5] concerns the target Sodium-dependent dopamine transporter (Homo sapiens, UniProt Q01959). The series is described as follows: DRUGMATRIX: Dopamine Transporter radioligand binding (ligand: [125I] RTI-55). It is filed as cell membranes, CHO-K1, Membrane. The following applies: Not Active = under 50% inhibition at 10 µM.
The target of series [6] is T2, Receptor-type tyrosine-protein phosphatase C (Homo sapiens, UniProt P08575).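 Further: inhibition of CD45 enzyme activity measured using DiFMUP as substrate; in other assays of this panel Not Active means under 50% inhibition at 10 µM.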
T2 sequence (P08575 whole entry): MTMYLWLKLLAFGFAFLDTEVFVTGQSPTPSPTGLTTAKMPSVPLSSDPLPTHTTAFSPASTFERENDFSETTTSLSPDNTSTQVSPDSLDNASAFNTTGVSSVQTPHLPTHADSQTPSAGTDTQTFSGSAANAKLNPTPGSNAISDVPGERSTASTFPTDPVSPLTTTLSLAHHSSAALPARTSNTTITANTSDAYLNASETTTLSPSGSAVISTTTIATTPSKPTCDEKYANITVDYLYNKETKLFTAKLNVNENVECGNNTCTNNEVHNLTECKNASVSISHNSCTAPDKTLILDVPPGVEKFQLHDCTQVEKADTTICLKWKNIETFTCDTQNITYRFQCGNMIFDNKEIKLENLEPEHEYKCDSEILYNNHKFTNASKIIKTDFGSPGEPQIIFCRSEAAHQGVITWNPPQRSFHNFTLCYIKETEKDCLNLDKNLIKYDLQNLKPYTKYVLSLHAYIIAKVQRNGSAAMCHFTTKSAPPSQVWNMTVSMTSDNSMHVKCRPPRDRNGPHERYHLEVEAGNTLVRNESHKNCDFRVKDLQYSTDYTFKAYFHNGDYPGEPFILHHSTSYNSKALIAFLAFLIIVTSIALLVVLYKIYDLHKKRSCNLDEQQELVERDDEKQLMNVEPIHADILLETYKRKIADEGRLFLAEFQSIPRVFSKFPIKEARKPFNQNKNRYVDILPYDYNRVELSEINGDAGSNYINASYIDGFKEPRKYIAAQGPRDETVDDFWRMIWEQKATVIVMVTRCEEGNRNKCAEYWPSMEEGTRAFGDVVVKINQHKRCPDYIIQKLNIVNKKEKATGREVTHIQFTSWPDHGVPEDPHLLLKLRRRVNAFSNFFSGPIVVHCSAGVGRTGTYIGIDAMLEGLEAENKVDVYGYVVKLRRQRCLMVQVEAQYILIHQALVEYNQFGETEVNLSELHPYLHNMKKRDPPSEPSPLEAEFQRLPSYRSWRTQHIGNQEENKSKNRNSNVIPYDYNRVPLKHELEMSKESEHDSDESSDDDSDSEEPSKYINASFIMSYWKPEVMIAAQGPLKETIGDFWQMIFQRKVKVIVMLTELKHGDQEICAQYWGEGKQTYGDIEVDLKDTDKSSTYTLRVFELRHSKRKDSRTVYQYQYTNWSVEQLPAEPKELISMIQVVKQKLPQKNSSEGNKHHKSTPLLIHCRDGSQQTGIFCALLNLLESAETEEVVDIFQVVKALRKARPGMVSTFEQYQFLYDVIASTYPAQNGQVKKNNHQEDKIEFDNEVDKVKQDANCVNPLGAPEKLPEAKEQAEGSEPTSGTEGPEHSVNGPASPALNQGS
Further details: species or system Escherichia coli.

In series [7] the target is T3, Cytochrome P450 2A6 (Homo sapiens, UniProt P11509). Further: in other assays of this panel Not Active means under 50% inhibition at 10 µM.
T3 sequence (P11509 whole entry): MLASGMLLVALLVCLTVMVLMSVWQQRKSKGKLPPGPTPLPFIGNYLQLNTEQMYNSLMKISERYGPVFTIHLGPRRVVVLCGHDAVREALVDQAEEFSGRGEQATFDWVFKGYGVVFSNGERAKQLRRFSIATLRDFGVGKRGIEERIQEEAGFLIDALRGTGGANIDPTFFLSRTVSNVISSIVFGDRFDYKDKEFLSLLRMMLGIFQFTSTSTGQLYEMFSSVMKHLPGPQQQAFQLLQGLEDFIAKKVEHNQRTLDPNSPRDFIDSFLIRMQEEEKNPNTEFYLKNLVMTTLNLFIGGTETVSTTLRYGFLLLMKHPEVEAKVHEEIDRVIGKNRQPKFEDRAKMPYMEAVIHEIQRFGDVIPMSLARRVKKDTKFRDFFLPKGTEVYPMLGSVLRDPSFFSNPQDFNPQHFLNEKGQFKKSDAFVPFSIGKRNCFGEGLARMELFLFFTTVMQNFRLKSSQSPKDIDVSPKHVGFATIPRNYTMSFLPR
Particulars: bti-tn-5b1-4.

Series [8] concerns the target Glycine receptor (Rattus norvegicus, UniProt P22771+P24524+P07727+P20781). Format: cell membranes, Wistar, Spinal cord, Membrane. Further: in other assays of this panel Not Active means under 50% inhibition at 10 µM.

Twelve molecules from ChEMBL document CHEMBL1909046, “DrugMatrix in vitro pharmacology data” can be followed below.

SMILES strings stand for the structures.

Sodium-dependent dopamine transporter, sequence (Q01959 whole entry): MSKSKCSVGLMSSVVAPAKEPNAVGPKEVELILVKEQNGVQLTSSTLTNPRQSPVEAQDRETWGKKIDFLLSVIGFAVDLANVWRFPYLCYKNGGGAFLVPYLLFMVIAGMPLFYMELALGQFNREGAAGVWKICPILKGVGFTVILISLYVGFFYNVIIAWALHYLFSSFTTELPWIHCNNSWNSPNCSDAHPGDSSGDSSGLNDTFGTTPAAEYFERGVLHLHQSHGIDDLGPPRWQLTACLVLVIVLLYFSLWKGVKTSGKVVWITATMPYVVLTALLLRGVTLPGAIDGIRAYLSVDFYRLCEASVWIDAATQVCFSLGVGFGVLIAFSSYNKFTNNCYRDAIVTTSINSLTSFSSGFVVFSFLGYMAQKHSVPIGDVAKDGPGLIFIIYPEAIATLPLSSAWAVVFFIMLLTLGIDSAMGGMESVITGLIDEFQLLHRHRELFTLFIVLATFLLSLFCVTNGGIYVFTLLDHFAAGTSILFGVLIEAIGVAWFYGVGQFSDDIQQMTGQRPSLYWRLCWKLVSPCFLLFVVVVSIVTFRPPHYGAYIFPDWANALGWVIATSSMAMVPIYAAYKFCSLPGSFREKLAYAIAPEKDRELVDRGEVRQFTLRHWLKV
Histamine H2 receptor, sequence (P25021 whole entry): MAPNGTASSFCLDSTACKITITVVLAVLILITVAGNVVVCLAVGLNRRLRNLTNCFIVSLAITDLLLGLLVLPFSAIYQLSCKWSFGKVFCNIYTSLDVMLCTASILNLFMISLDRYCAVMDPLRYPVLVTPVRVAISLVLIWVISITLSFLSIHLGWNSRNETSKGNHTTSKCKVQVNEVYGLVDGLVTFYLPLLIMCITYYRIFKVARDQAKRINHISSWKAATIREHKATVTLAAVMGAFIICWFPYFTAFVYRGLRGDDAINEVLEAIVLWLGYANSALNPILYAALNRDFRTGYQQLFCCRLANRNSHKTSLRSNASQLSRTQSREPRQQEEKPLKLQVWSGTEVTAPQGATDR

Broadly, the IC50 is the concentration that gives 50% inhibition. In general, Ki refers to a dissociation constant, usually derived from enzyme kinetics or from competition with a known ligand. With `CCOC(=O)n1ccn(C)c1=S` [CARBIMAZOLE], the IC50 entry in series [1], in series [2], in series [3], in series [4], in series [5] (cho-k1) and in series [6] was “Not Active” throughout. In addition, the IC50 result in series [7] and in series [8] was “Not Active” throughout. In addition, the Ki entry in series [1] and in series [7] was “Not Active” in each case.
As for `Oc1ccccc1O` [CATECHOL], the 50% inhibitory concentration (IC50) entry in series [1], in series [2], in series [3], in series [4], in series [5] (cho-k1) and in series [6] was “Not Active” in each case. Besides, the IC50 entry in series [7] and in series [8] was “Not Active” in each case. Also, the inhibitory constant (Ki) entry in series [1] and in series [7] was “Not Active” each time.
For `CO[C@@]1(NC(=O)CSCC#N)C(=O)N2C(C(=O)O)=C(CSc3nnnn3C)CS[C@@H]21` [CEFMETAZOLE], the IC50 result in series [1], in series [2], in series [3], in series [4], in series [5] (cho-k1) and in series [6] was “Not Active” each time. Besides, the IC50 result in series [7] and in series [8] was “Not Active” in each case. Moreover, the inhibitory constant (Ki) result in series [1] and in series [7] was “Not Active” each time.
For `CN(C(=O)CCCOc1ccc2[nH]c(=O)ccc2c1)C1CCCCC1` [CILOSTAMIDE], the 50% inhibitory concentration (IC50) result in series [1], in series [2], in series [3], in series [4], in series [5] (cho-k1) and in series [6] was “Not Active” in each case. Also, the IC50 result in series [7] and in series [8] was “Not Active” in each case. Besides, the Ki result in series [1] and in series [7] was “Not Active” each time.
`CC(C)(Oc1ccc(C2CC2(Cl)Cl)cc1)C(=O)O` (stereo unspecified) [CIPROFIBRATE]: the IC50 entry in series [1], in series [2], in series [3], in series [4], in series [5] (cho-k1) and in series [6] was “Not Active” each time. Besides, the IC50 result in series [7] and in series [8] was “Not Active” throughout. Further, the Ki result in series [1] and in series [7] was “Not Active” in each case.
Consider `Nc1nc(Cl)nc2c1ncn2[C@H]1C[C@H](O)[C@@H](CO)O1` [CLADRIBINE], for which the IC50 entry in series [1], in series [2], in series [3], in series [4], in series [5] (cho-k1) and in series [6] was “Not Active” in each case. The IC50 result in series [7] and in series [8] was “Not Active” each time. Further, the inhibitory constant (Ki) entry in series [1] and in series [7] was “Not Active” throughout.
`CC[C@H]1OC(=O)[C@H](C)[C@@H](O[C@H]2C[C@@](C)(OC)[C@@H](O)[C@H](C)O2)[C@H](C)[C@@H](O[C@@H]2O[C@H](C)C[C@H](N(C)C)[C@H]2O)[C@](C)(OC)C[C@@H](C)C(=O)[C@H](C)[C@@H](O)[C@]1(C)O` [CLARITHROMYCIN]: the IC50 entry in series [1], in series [2], in series [3], in series [4], in series [5] (cho-k1) and in series [6] was “Not Active” in each case. Further, the IC50 entry in series [7] and in series [8] was “Not Active” throughout. For the same molecule, the Ki entry in series [1] and in series [7] was “Not Active” each time.
As for `O=C(O)c1cc(=O)c2c(OCC(O)COc3cccc4oc(C(=O)O)cc(=O)c34)cccc2o1` [CROMOLYN], the IC50 result in series [1], in series [2], in series [3], in series [4], in series [5] (cho-k1) and in series [6] was “Not Active” in each case. Further, the IC50 result in series [7] and in series [8] was “Not Active” in each case. For the same molecule, the Ki result in series [1] and in series [7] was “Not Active” throughout.
Consider `O=P1(N(CCCl)CCCl)NCCCO1` (stereo unspecified) [CYCLOPHOSPHAMIDE ANHYDROUS], for which the IC50 result in series [1], in series [2], in series [3], in series [4], in series [5] (cho-k1) and in series [6] was “Not Active” throughout. For the same molecule, the IC50 entry in series [7] and in series [8] was “Not Active” throughout. The Ki result in series [1] and in series [7] was “Not Active” each time.
For `CC(=O)O[C@]1(C(C)=O)CC[C@H]2[C@@H]3C=C(Cl)C4=CC(=O)[C@@H]5C[C@@H]5[C@]4(C)[C@H]3CC[C@@]21C` [CYPROTERONE ACETATE], the IC50 entry in series [1], in series [2], in series [3], in series [4], in series [5] (cho-k1) and in series [6] was “Not Active” in each case. Further, the IC50 result in series [7] and in series [8] was “Not Active” throughout. For the same molecule, the Ki result in series [1] and in series [7] was “Not Active” in each case.
Turning to `Nc1nc(N)nc(NC2CC2)n1` [CYROMAZINE], the IC50 entry in series [1], in series [2], in series [3], in series [4], in series [5] (cho-k1) and in series [6] was “Not Active” throughout. Also, the IC50 entry in series [7] and in series [8] was “Not Active” in each case. In addition, the Ki entry in series [1] and in series [7] was “Not Active” each time.
For the molecule `C#C[C@]1(O)CC[C@H]2[C@@H]3CCC4=Cc5oncc5C[C@]4(C)[C@H]3CC[C@@]21C` [DANAZOL], the half-maximal inhibitory concentration (IC50) in series [1] (read-out: IC50) was 54.3 µM; in series [2] it was “Not Active”; in series [3] it was “Not Active”; in series [4], “Not Active”; in series [5] (read-out: IC50), 6.84 µM; in series [6], “Not Active”. Further, the concentration for half-maximal inhibition (IC50) result in series [7] and in series [8] was “Not Active” in each case. Moreover, the inhibition constant (Ki) in series [1] (read-out: Ki) is 44.3 µM; in series [5] (read-out: Ki), 5.44 µM; in series [7], “Not Active”.
